According to patent US20250134887A1, “METHODS OF TREATING PROSTATE CANCER” (AstraZeneca AB, priority 2022, published 2025):

System: patients with mCRPC
Experiment: PROpel phase III trial: safety, adverse events (CTCAE v.4.03)
Type: in vivo, human
Procedure: Trial design and interventions. This was a double-blind, placebo-controlled, phase Ill trial. Eligible patients were randomized (1:1) to treatment with abiraterone acetate (1000 mg once daily) in combination with either olaparib (300 mg twice daily) or placebo. All patients received prednisone or prednisolone (5 mg twice daily) as per the abiraterone acetate label requirement. Randomization was stratified by distant metastasis type (bone only/visceral/other) at baseline and by docetaxel treatment at the mHSPC stage of disease (yes or no). Study treatment continued until objective imaging-based progressive disease assessed by investigator (using Response Evaluation Criteria in Solid Tumors [RECIST 1.1] for soft tissue lesions and Prostate Cancer Working Group-3 [PCWG-3] criteria for bone lesions), unacceptable toxicity, or withdrawal of consent. Following objective disease progression, further treatment options were at the discretion of the investigator. Patients could continue study treatment if the investigator believed, that the patient could continue to receive clinical benefit, was not experiencing serious toxicity and there was no available better alternative treatment. Crossover from placebo to receive olaparib in combination with abiraterone acetate was not allowed.
Safety was assessed through reporting of adverse events and serious adverse events (according to Common Terminology Criteria for Adverse Events v.4.03) based on physical examination findings, vital signs, ECG findings and laboratory test results.
Statistical analysis. Efficacy was analyzed for the intention-to-treat population and safety was analyzed for all patients who received any amount of abiraterone acetate, olaparib, or placebo. Patients who received at least one dose of olaparib were included in the abiraterone acetate and olaparib arm.

[1] = male, human, in vivo, 15.7 months

CC(=O)O[C@H]1CC[C@@]2(C)C(=CC[C@@H]3[C@@H]2CC[C@]2(C)C(c4cccnc4)=CC[C@@H]32)C1 [abiraterone acetate and placebo, (3β)-17-(3-pyridinyl) androsta-5,16-dien-3-yl acetate]
Anemia, % of patients (All Grades): (16.4) % | Anemia, number of patients (All Grades): 65 | Any adverse event, % of patients (All Grades): (94.9) % | Any adverse event, number of patients (All Grades): 376 | Arthralgia, % of patients (All Grades): (17.7) % | Arthralgia, number of patients (All Grades): 70 | Back pain, % of patients (All Grades): (18.4) % | Back pain, number of patients (All Grades): 73 | Cardiac failure adverse events, % of patients (All Grades): (1.3) % | Cardiac failure adverse events, number of patients (All Grades): 5 | Constipation, % of patients (All Grades): (13.9) % | Constipation, number of patients (All Grades): 55 | Decreased appetite, % of patients (All Grades): (5.8) % | Decreased appetite, number of patients (All Grades): 23 | Diarrhea, % of patients (All Grades): (9.3) % | Diarrhea, number of patients (All Grades): 37 | Dizziness, % of patients (All Grades): (6.3) % | Dizziness, number of patients (All Grades): 25 | Embolic and thrombotic arterial adverse events, % of patients (All Grades): (2.5) % | Embolic and thrombotic arterial adverse events, number of patients (All Grades): 10 | Fatigue or asthenia, % of patients (All Grades): (28.3) % | Fatigue or asthenia, number of patients (All Grades): 112 | Hypertension, % of patients (All Grades): (16.4) % | Hypertension, number of patients (All Grades): 65 | Nausea, % of patients (All Grades): (12.6) % | Nausea, number of patients (All Grades): 50 | Peripheral edema, % of patients (All Grades): (11.4) % | Peripheral edema, number of patients (All Grades): 45 | Urinary tract infection, % of patients (All Grades): (7.8) % | Urinary tract infection, number of patients (All Grades): 31 | Vomiting, % of patients (All Grades): (9.1) % | Vomiting, number of patients (All Grades): 36 | Anemia, % of patients (Grade ≥ 3): 3.3% | Anemia, number of patients (Grade ≥ 3): 13 | Any adverse event, % of patients (Grade ≥ 3): (38.4) % | Any adverse event, number of patients (Grade ≥ 3): 152 | Arthralgia, % of patients (Grade ≥ 3): (0.5) % | Arthralgia, number of patients (Grade ≥ 3): 2 | Back pain, % of patients (Grade ≥ 3): (1.0) % | Back pain, number of patients (Grade ≥ 3): 4 | COVID-19, % of patients (Grade ≥ 3): 2.0% | COVID-19, cases (Grade ≥ 3): 8 | Constipation, % of patients (Grade ≥ 3): (0.3) % | Constipation, number of patients (Grade ≥ 3): 1 | Decreased appetite, number of patients (Grade ≥ 3): 0 | Diarrhea, % of patients (Grade ≥ 3): (0.3) % | Diarrhea, number of patients (Grade ≥ 3): 1 | Dizziness, number of patients (Grade ≥ 3): 0 | Fatigue or asthenia, % of patients (Grade ≥ 3): (1.5) % | Fatigue or asthenia, number of patients (Grade ≥ 3): 6 | Hypertension, % of patients (Grade ≥ 3): (3.3) % | Hypertension, number of patients (Grade ≥ 3): 13 | Nausea, % of patients (Grade ≥ 3): (0.3) % | Nausea, number of patients (Grade ≥ 3): 1 | Peripheral edema, % of patients (Grade ≥ 3): (0.3) % | Peripheral edema, number of patients (Grade ≥ 3): 1 | Urinary tract infection, % of patients (Grade ≥ 3): (1.0) % | Urinary tract infection, number of patients (Grade ≥ 3): 4 | Vomiting, % of patients (Grade ≥ 3): (0.3) % | Vomiting, number of patients (Grade ≥ 3): 1 | Anemia, % of patients (Grade ≥ 3, listed as Abiraterone and Placebo): (3.3) % | COVID-19, % of patients (all grades): 4.5% | COVID-19, cases (all grades): 18 | Any serious adverse event, % of patients (human, in vivo, 15.7 months): (27.0) % | Any serious adverse event, number of patients (human, in vivo, 15.7 months): 107 | Death due to an adverse event, % of patients (human, in vivo, 15.7 months): (4.3) % | Death due to an adverse event, number of patients (human, in vivo, 15.7 months): 17 | Discontinuation of abiraterone acetate due to an adverse event, % of patients (human, in vivo, 15.7 months): (8.8) % | Discontinuation of abiraterone acetate due to an adverse event, number of patients (human, in vivo, 15.7 months): 35 | Discontinuation of olaparib/placebo due to an adverse event, % of patients (human, in vivo, 15.7 months): (7.8) % | Discontinuation of olaparib/placebo due to an adverse event, number of patients (human, in vivo, 15.7 months): 31 | Dose reduction of abiraterone acetate due to an adverse event, % of patients (human, in vivo, 15.7 months): (4.3) % | Dose reduction of abiraterone acetate due to an adverse event, number of patients (human, in vivo, 15.7 months): 17 | Dose reduction of olaparib/placebo due to an adverse event, % of patients (human, in vivo, 15.7 months): (5.6) % | Dose reduction of olaparib/placebo due to an adverse event, number of patients (human, in vivo, 15.7 months): 22 | Interruption of abiraterone acetate because of an adverse event, % of patients (human, in vivo, 15.7 months): (22.0) % | Interruption of abiraterone acetate because of an adverse event, number of patients (human, in vivo, 15.7 months): 87 | Interruption of olaparib/placebo because of an adverse event, % of patients (human, in vivo, 15.7 months): (25.3) % | Interruption of olaparib/placebo because of an adverse event, number of patients (human, in vivo, 15.7 months): 100 | Deep-vein thrombosis, patients (in vivo): three | pulmonary embolism, cases (in vivo): seven | Deep-vein thrombosis, % of patients [1]: 0.8% | new primary cancers, % of patients [1]: 2.5% | new primary cancers, reports [1]: 10 | pulmonary embolism, % of patients [1]: 1.8%
